Results published in ChEMBL document CHEMBL5385923, “HPPO-Derived Meroterpenoids from the Marine-Derived Fungus Penicillium sp. SCSIO 41691” (J Nat Prod, 2024).

How the values were obtained:
[1] = tested on: NCI-H1975; assay: Cytotoxicity against human NCI-H1975 cells assessed as inhibition of cell growth incubated for 24 hrs by CCK-8 assay; assay type: functional, cell-based; settings: NCI-H1975, 24 h
[2] = tested on: RAW264.7; assay: Antiinflammatory activity in LPS induced mouse RAW264.7 cells assessed as inhibition of NO production at 25 uM pretreated for 2 hrs followed by LPS stimulation and measured after 24 hrs by Griess reagent based assay relative to control; assay type: functional; settings: time 26 hrs
[3] = tested on: RAW264.7; assay: Antiinflammatory activity in LPS induced mouse RAW264.7 cells assessed as inhibition of NO production pretreated for 2 hrs followed by LPS stimulation and measured after 24 hrs by Griess reagent based assay; assay type: functional, cell-based
[4] = Cytotoxicity against mouse RAW264.7 cells assessed as reduction in cell viability incubated for 2 hrs by MTT assay; assay type: toxicity, cell-based

Structure (SMILES)	IC50 [1] [µM]	inhibition at 25 µM [2] [%]	IC50 [3] [µM]	CC50 at 2 h [4] [µM]
COc1ccc(-c2cc3c(c(=O)o2)C[C@H]2[C@@](C)(CC[C@@]45O[C@@](O)(OC4(C)C)[C@H](O)C[C@]25C)O3)cc1	> 80	0	–	–
COc1ccc(-c2cc3c(c(=O)o2)C[C@]2(O)[C@@]45CO[C@@H](CC4=O)C(C)(C)[C@]5(O)CC[C@@]2(C)O3)cc1OC	> 80	62	21	> 50
COc1ccc(-c2cc3c(c(=O)o2)C[C@]24O[C@]25[C@H](C)C[C@@H](O)C(C)(C)[C@]5(O)CC[C@@]4(C)O3)cc1	> 80	6.3	–	–
COc1ccc(-c2cc3c(c(=O)o2)C[C@]2(O)[C@@]4(C)[C@H](O)C[C@@H](OC(C)=O)C(C)(C)[C@]4(O)CC[C@@]2(C)O3)cc1	> 80	2.5	–	–
COc1cc(-c2cc3c(c(=O)o2)C[C@]2(O)[C@@]45CO[C@@H](CC4=O)C(C)(C)[C@]5(O)CC[C@@]2(C)O3)cc2c1OCO2	15	11	–	–
COc1cc(-c2cc3c(c(=O)o2)C[C@]2(O)[C@@]45CO[C@@H](CC4=O)C(C)(C)[C@]5(O)CC[C@@]2(C)O3)cc(OC)c1OC	> 80	22	–	–
COc1ccc(-c2cc3c(c(=O)o2)C[C@H]2[C@@](C)(CC[C@@]4(O)C(C)(C)C(=O)C=C[C@]24C)O3)cc1	> 80	35	–	–
COc1ccc(-c2cc3c(c(=O)o2)C[C@]2(O)[C@@]45O[C@]4(CC[C@@]2(C)O3)C(C)(C)[C@H](O)C[C@H]5C)cc1	67	32	–	–
COc1ccc(-c2cc3c(c(=O)o2)C[C@H]2[C@@](C)(CC[C@@]4(O)C(C)(C)OC(=O)[C@H](O)C[C@]24C)O3)cc1	> 80	7.6	–	–
COc1ccc2c(c1)c(CC(=O)O)c(C)n2C(=O)c1ccc(Cl)cc1 [INDOMETHACIN]	–	57	24	> 50
